Values of other authors, collected in patent US20130130306A1, “ZN (II) BASED COLORIMETRIC SENSOR AND PROCESS FOR THE PREPARATION THEREOF” (COUNCIL OF SCIENTIFIC & INDUSTRIAL RESEARCH, priority 2010, published 2013).

Tested on: living microbes (eukaryotes and prokaryotes)
Conditions: drug carrier, general knowledge; cited from earlier work

OC[C@H]1O[C@@H]2O[C@H]3[C@H](O)[C@@H](O)[C@@H](O[C@H]4[C@H](O)[C@@H](O)[C@@H](O[C@H]5[C@H](O)[C@@H](O)[C@@H](O[C@H]6[C@H](O)[C@@H](O)[C@@H](O[C@H]7[C@H](O)[C@@H](O)[C@@H](O[C@H]1[C@H](O)[C@H]2O)O[C@@H]7CO)O[C@@H]6CO)O[C@@H]5CO)O[C@@H]4CO)O[C@@H]3CO [α-CD, α-cyclodextrin]
toxicity to the living cell (known): completely non-toxic
